Laboratory results: patent publication US20090216010A1, “CRYSTALLINE CARBAPENEM COMPOUND AND PRODUCED METHOD THEREOF” (priority 2008, published 2009)
Like-named read-outs stand apart in the source and are kept apart here.

Key:
[1] = stability during storage of the solid form; format: physicochemical; conditions: new crystalline form B, compared with non-crystalline form, no data given
[2] = solid form, storage over a long period of time; prior-art forms (EP 126587A, EP 256377, US 4,888,344); cited from earlier work

Row | Compound | stability during storage [1] | stability during storage ([1]; listed as crystalline carbapenem compound of the present invention) | stability during storage [2]
1 | C[C@@H](O)[C@H]1C(=O)N2C(C(=O)O)=C(S[C@@H]3CN[C@H](C(=O)N(C)C)C3)[C@H](C)[C@H]12 [Compound A in a new crystalline form B, (4R,5S,6S)-3-[[(3S,5S)-5-[(dimethylamino)carbonyl]-3-pyrrolidinyl]thio]-6-[(1R)-1-hydroxyethyl]-4-methyl-7-oxo-1-azabicyclo[3.2.0]hept-2-ene-2-carboxylic acid] | stable for storage | much more stable than carbapenem compound in a non-crystalline form | –
2 | C[C@@H](O)[C@H]1C(=O)N2C(C(=O)O)=C(S[C@@H]3CN[C@H](C(=O)N(C)C)C3)[C@H](C)[C@H]12 [Compound A in such crystalline form A, (4R,5S,6S)-3-[[(3S,5S)-5-[(dimethylamino)carbonyl]-3-pyrrolidinyl]thio]-6-[(1R)-1-hydroxyethyl]-4-methyl-7-oxo-1-azabicyclo[3.2.0]hept-2-ene-2-carboxylic acid] | – | – | much more stable than in a non-crystalline form
3 | C[C@@H](O)[C@H]1C(=O)N2C(C(=O)O)=C(S[C@@H]3CN[C@H](C(=O)N(C)C)C3)[C@H](C)[C@H]12 [Compound A in such non-crystalline form, (4R,5S,6S)-3-[[(3S,5S)-5-[(dimethylamino)carbonyl]-3-pyrrolidinyl]thio]-6-[(1R)-1-hydroxyethyl]-4-methyl-7-oxo-1-azabicyclo[3.2.0]hept-2-ene-2-carboxylic acid] | – | – | not sufficiently stable
